Organism: Rattus norvegicus
Test: DrugMatrix - Regimen: Daily Repeat
Assay type: toxicity, organism-based, Sprague-Dawley
Design: regimen Daily Repeat, gender Male, age 6-8 weeks
Conditions: in vivo, po, route oral GAVAGE, vehicle 100 % WATER; for ABSOLUTE BASOPHIL / ABSOLUTE EOSINOPHIL / ABSOLUTE LYMPHOCYTE / ABSOLUTE MONOCYTE / ABSOLUTE SEGMENTED NEUTROPHIL / BASOPHIL / EOSINOPHIL / ERYTHROCYTE COUNT / HEMATOCRIT / HEMOGLOBIN / LEUKOCYTE COUNT / LYMPHOCYTE / MEAN CORPUSCULAR HEMOGLOBIN / MEAN CORPUSCULAR HEMOGLOBIN CONCENTRATION / MEAN CORPUSCULAR VOLUME / MONOCYTE / NEUTROPHIL / NUCLEATED RED BLOOD CELLS / PLATELET COUNT: tissue Blood; for ALANINE AMINOTRANSFERASE / ALBUMIN / ALKALINE PHOSPHATASE / ASPARTATE AMINOTRANSFERASE / BLOOD UREA NITROGEN / CARBON DIOXIDE / CHLORIDE / CHOLESTEROL / CREATINE PHOSPHOKINASE / CREATININE / GLUCOSE / LACTATE DEHYDROGENASE / LIPASE / PHOSPHORUS / POTASSIUM / SODIUM / TOTAL BILIRUBIN / TOTAL PROTEIN / URIC ACID: tissue Plasma
[1] = 19.5 mg/kg, 120 h, dose level Low, time 5 day
[2] = 75 mg/kg, 72 h, dose level High, time 3 day
[3] = 75 mg/kg, 120 h, dose level High, time 5 day

## CN1CCC[C@H]1c1cccnc1 [NICOTINE]
[1]
  ABSOLUTE BASOPHIL: 0 CELLS/uL
  ABSOLUTE EOSINOPHIL: 37.67 CELLS/uL
  ABSOLUTE LYMPHOCYTE: 10299.33 CELLS/uL
  ABSOLUTE MONOCYTE: 0 CELLS/uL
  ABSOLUTE SEGMENTED NEUTROPHIL: 1096.33 CELLS/uL
  BASOPHIL: 0%
  EOSINOPHIL: 0.33%
  ERYTHROCYTE COUNT: 5.67 x10E6/uL
  HEMATOCRIT: 35.63%
  HEMOGLOBIN: 14.17 G/DL
  LEUKOCYTE COUNT: 11.43 x10E3/uL
  LYMPHOCYTE: 90.33%
  MEAN CORPUSCULAR HEMOGLOBIN: 25 pg
  MEAN CORPUSCULAR HEMOGLOBIN CONCENTRATION: 39.77 G/DL
  MEAN CORPUSCULAR VOLUME: 62.83 fL
  MONOCYTE: 0%
  NEUTROPHIL: 9.33%
  NUCLEATED RED BLOOD CELLS: 0.33 /100WBC
  PLATELET COUNT: 1167.67 x10E3/uL
  ALANINE AMINOTRANSFERASE: 54.67 u/L
  ALBUMIN: 4.17 G/DL
  ALKALINE PHOSPHATASE: 397.33 u/L
  ASPARTATE AMINOTRANSFERASE: 83.67 u/L
  BLOOD UREA NITROGEN: 12 mg/dL
  CARBON DIOXIDE: 34.33 mmol/L
  CHLORIDE: 101 MEQ/L
  CHOLESTEROL: 62.33 mg/dL
  CREATINE PHOSPHOKINASE: 196.67 u/L
  CREATININE: 0.21 mg/dL
  GLUCOSE: 146.67 mg/dL
  LACTATE DEHYDROGENASE: 207.67 u/L
  LIPASE: 11.67 u/L
  PHOSPHORUS: 11.63 mg/dL
  POTASSIUM: 6.48 MEQ/L
  SODIUM: 143.9 MEQ/L
  TOTAL BILIRUBIN: 0.23 mg/dL
  TOTAL PROTEIN: 6.03 G/DL
  URIC ACID: 1.2 mg/dL
[2]
  ABSOLUTE BASOPHIL: 0 CELLS/uL
  ABSOLUTE EOSINOPHIL: 0 CELLS/uL
  ABSOLUTE LYMPHOCYTE: 13562.33 CELLS/uL
  ABSOLUTE MONOCYTE: 210.33 CELLS/uL
  ABSOLUTE SEGMENTED NEUTROPHIL: 827.33 CELLS/uL
  BASOPHIL: 0%
  EOSINOPHIL: 0%
  ERYTHROCYTE COUNT: 5.82 x10E6/uL
  HEMATOCRIT: 37.17%
  HEMOGLOBIN: 14.57 G/DL
  LEUKOCYTE COUNT: 14.6 x10E3/uL
  LYMPHOCYTE: 93%
  MEAN CORPUSCULAR HEMOGLOBIN: 25.03 pg
  MEAN CORPUSCULAR HEMOGLOBIN CONCENTRATION: 39.2 G/DL
  MEAN CORPUSCULAR VOLUME: 63.87 fL
  MONOCYTE: 1.33%
  NEUTROPHIL: 5.67%
  NUCLEATED RED BLOOD CELLS: 0.33 /100WBC
  PLATELET COUNT: 1370 x10E3/uL
  ALANINE AMINOTRANSFERASE: 58.67 u/L
  ALBUMIN: 4.07 G/DL
  ALKALINE PHOSPHATASE: 398 u/L
  ASPARTATE AMINOTRANSFERASE: 92 u/L
  BLOOD UREA NITROGEN: 11 mg/dL
  CARBON DIOXIDE: 25.67 mmol/L
  CHLORIDE: 101.33 MEQ/L
  CHOLESTEROL: 64 mg/dL
  CREATINE PHOSPHOKINASE: 288.33 u/L
  CREATININE: 0.13 mg/dL
  GLUCOSE: 150.33 mg/dL
  LACTATE DEHYDROGENASE: 290.67 u/L
  LIPASE: 10.33 u/L
  PHOSPHORUS: 11.73 mg/dL
  POTASSIUM: 6.07 MEQ/L
  SODIUM: 143.23 MEQ/L
  TOTAL BILIRUBIN: 0.17 mg/dL
  TOTAL PROTEIN: 5.73 G/DL
  URIC ACID: 1.6 mg/dL
[3]
  ABSOLUTE BASOPHIL: 0 CELLS/uL
  ABSOLUTE EOSINOPHIL: 0 CELLS/uL
  ABSOLUTE LYMPHOCYTE: 9380.67 CELLS/uL
  ABSOLUTE MONOCYTE: 97.67 CELLS/uL
  ABSOLUTE SEGMENTED NEUTROPHIL: 455 CELLS/uL
  BASOPHIL: 0%
  EOSINOPHIL: 0%
  ERYTHROCYTE COUNT: 6.33 x10E6/uL
  HEMATOCRIT: 38.6%
  HEMOGLOBIN: 15.23 G/DL
  LEUKOCYTE COUNT: 9.93 x10E3/uL
  LYMPHOCYTE: 94.33%
  MEAN CORPUSCULAR HEMOGLOBIN: 24.1 pg
  MEAN CORPUSCULAR HEMOGLOBIN CONCENTRATION: 39.5 G/DL
  MEAN CORPUSCULAR VOLUME: 61 fL
  MONOCYTE: 1%
  NEUTROPHIL: 4.67%
  NUCLEATED RED BLOOD CELLS: 0.33 /100WBC
  PLATELET COUNT: 1256.67 x10E3/uL
  ALANINE AMINOTRANSFERASE: 64.67 u/L
  ALBUMIN: 4.53 G/DL
  ALKALINE PHOSPHATASE: 383 u/L
  ASPARTATE AMINOTRANSFERASE: 91 u/L
  BLOOD UREA NITROGEN: 12.67 mg/dL
  CARBON DIOXIDE: 33 mmol/L
  CHLORIDE: 101.67 MEQ/L
  CHOLESTEROL: 71.67 mg/dL
  CREATINE PHOSPHOKINASE: 315 u/L
  CREATININE: 0.22 mg/dL
  GLUCOSE: 140.33 mg/dL
  LACTATE DEHYDROGENASE: 131.33 u/L
  LIPASE: 9.67 u/L
  PHOSPHORUS: 9.5 mg/dL
  POTASSIUM: 5.03 MEQ/L
  SODIUM: 147.7 MEQ/L
  TOTAL BILIRUBIN: 0.17 mg/dL
  TOTAL PROTEIN: 6.6 G/DL
  URIC ACID: 0.77 mg/dL

Source: ChEMBL document CHEMBL3885881, “DrugMatrix”
